Reference: publication PMC7033111, “Rational design of novel benzisoxazole derivatives with acetylcholinesterase inhibitory and serotoninergic 5-HT4 receptors activities for the treatment of Alzheimer’s disease” (Scientific Reports, 2020)
Several values for one entry are separate records, joined by “and”; a condition that tells them apart may be missing. Equal values may be shown once. Read-outs that look alike come from different tables or passages of the source.

Key:
[1] = molecular target: T1, human 5-HT4R (5-HT4(b) receptor membranes) (Homo sapiens, UniProt Q13639); assay: h5-HT4R competition binding with [3H]-GR113808; details: for inhibition: 0.2 nM [3H]-GR113808
T1 construct: purchased Millipore HTS110M
T1 sequence (Q13639 whole entry): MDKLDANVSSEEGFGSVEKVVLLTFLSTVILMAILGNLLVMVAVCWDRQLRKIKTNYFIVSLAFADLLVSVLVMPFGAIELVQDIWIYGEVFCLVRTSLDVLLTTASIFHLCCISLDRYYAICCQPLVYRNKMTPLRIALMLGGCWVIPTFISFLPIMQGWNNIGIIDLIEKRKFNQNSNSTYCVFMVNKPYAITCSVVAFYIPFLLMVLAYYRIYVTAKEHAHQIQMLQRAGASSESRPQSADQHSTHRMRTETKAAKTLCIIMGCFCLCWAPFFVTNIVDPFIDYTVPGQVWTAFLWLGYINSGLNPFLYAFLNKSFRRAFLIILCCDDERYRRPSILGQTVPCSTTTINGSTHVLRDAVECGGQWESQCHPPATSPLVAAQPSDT
Experimental: The competition studies used membrane preparations made from proprietary stable recombinant cell lines expressing the 5-HT4(b) receptor to ensure high-level of GPCR surface expression (HTS110M, Millipore). Membranes (2.5 µg protein) were incubated in duplicate at 25 °C for 60 min in the absence or the presence of 10^–6 or 10^–8M of each drug and 0.2 nM [^3H]-GR 113808 (VT 240, ViTrax) in 25 mM Tris buffer (pH 7.4, 25 °C). At the end of the incubation, homogenates were filtered through Whatman GF/C filters (Alpha Biotech) pre-soaked with 0.5% polyethylenimine using a Brandel cell harvester. Filters were subsequently washed three times with 4 mL of ice-cold 25 mM Tris buffer (pH 7.4, 4 °C). Non-specific binding was evaluated in parallel in the presence of 30 μM serotonin.
For some of these compounds, affinity constants were calculated from five-point inhibition curves using the EBDA-Ligand software and expressed as Ki ± SD[41].

[2] = molecular target: T2, hAChE (AChE from human erythrocytes) (Homo sapiens, UniProt P22303); assay: hAChE inhibition, spectrometric Ellman method; type: biochemical; details: for inhibition at 1 µM: 10^−6 M compound; for IC50: Ellman method, n = 2; for inhibition of the enzyme (AChE), in words: statement in discussion
T2 construct: AChE from human erythrocytes; purchased Sigma Aldrich; host or cells: human erythrocytes (tissue-derived enzyme)
T2 sequence (P22303 other isoform, or with tags, fused parts or gaps): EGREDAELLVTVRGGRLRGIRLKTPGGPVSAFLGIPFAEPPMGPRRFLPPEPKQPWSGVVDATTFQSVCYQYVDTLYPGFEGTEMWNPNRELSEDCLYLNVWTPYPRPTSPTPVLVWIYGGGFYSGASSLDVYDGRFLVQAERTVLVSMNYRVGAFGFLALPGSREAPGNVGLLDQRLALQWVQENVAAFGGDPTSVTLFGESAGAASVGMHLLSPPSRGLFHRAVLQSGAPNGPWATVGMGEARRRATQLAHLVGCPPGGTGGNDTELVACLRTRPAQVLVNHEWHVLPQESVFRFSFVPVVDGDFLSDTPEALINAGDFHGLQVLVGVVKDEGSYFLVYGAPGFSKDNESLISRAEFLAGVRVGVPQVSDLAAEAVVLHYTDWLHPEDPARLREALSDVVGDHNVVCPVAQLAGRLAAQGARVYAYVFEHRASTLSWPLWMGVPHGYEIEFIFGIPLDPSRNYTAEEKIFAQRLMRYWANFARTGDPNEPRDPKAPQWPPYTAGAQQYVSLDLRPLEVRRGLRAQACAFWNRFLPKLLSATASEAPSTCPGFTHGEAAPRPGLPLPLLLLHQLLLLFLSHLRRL
Experimental: Inhibitory capacity of compounds on AChE biological activity was evaluated through the use of the spectrometric method of Ellman[39]. Acetylthiocholine and 5,5-dithiobis-(2-nitrobenzoic) acid (DTNB) were purchased from Sigma Aldrich. AChE from human erythrocytes (buffered aqueous solution, ≥500 units/mg protein (BCA), Sigma Aldrich) was diluted in 20 mM HEPES buffer pH 8, 0.1% Triton X-100 such as to have enzyme solution with 0.25 unit/mL enzyme activity. In the procedure, 100 μL of 0.3 mM DTNB dissolved in phosphate buffer pH 7.4 were added into the 96 wells plate followed by 50 μL of test compound solution and 50 μL of enzyme ([…]). After 5 min of preincubation at 25 °C, the reaction was then initiated by the injection of 50 μL of 10 mM acetylthiocholine iodide solution. The hydrolysis of acetylthiocholine was monitored by the formation of yellow 5-thio-2-nitrobenzoate anion as the result of the reaction of DTNB with thiocholine, released by the enzymatic hydrolysis of acetylthiocholine, at a wavelength of 412 nm using a 96-well microplate plate reader (TECAN Infinite M200, Lyon, France). Test compounds were dissolved in analytical grade DMSO. Donepezil was used as a reference standard. The rate of absorbance increase at 412 nm was followed every minute for 10 min. Assays were performed with a blank containing all components except acetylthiocholine, in order to account for non-enzymatic reaction. The reaction slopes were compared and the percent inhibition due to the presence of test compounds was calculated by the following expression: 100 − (vi/v0 × 100) where vi is the rate calculated in the presence of inhibitor and v0 is the enzyme activity.
For the compounds with significant inhibition (≥50%), IC50 values were determined graphically by plotting the % inhibition versus the logarithm of six inhibitor concentrations in the assay solution using the Origin software.

[3] = molecular target: T3, HA-tagged human 5-HT4 receptor (Homo sapiens, UniProt Q13639); assay: cAMP production, agonist mode, transfected COS-7 cells; type: cell-based; details: for Log(EC50): given as Log(EC50); for 5-HT4 pharmacological profile (agonism assay): cAMP production, COS-7 cells
T3 construct: HA; expressed in transfected cells; host or cells: COS-7 cells (ATCC CRL-1651), transient transfection
T3 sequence (Q13639 whole entry): as the sequence (Q13639 whole entry) above
Source text: (§1) Figure 5 Determination of the 5-HT4 pharmacological profiles for compounds 16, 32a and 33 by quantification of cAMP production. (A) Assay to determine the agonism activity (with serotonin and the partial agonist RS-67333 as references). (B) Assay to determine the antagonism activity (with the antagonist GR113808 as reference). Data presented are the mean of three independent experiments performed in duplicate.
(§2) COS-7 cells were purchased from ATCC (ATCC CRL-1651; LGC […], Molsheim, France). T were grown in Dulbecco’s modified Eagle medium (DMEM) supplemented with 10% dialyzed fetal calf serum (dFCS) and antibiotics. Cells were transiently transfected with plasmid encoding HA-tagged human 5-HT4 receptor, then seeded in 96-well plates (35,000 cells/well). 24 hrs after transfection, cells were washed once with 200 µl of HBS (20 mM HEPES; 150 mM NaCl; 4.2 mM KCl; 0.9 mM CaCl2; 0.5 mM MgCl2; 0.1% glucose; 0.1% BSA) and, after HBS removal, exposed to the indicated concentrations of 5-HT4R ligands in the presence of 0.1 mM of the phosphodiesterase inhibitor RO-20-1724, at 37 °C in 100 µl of HBS. After 10 min, cells were then lysed by addition of the same volume of Triton-X100 (0.1%) during 30 min at 37 °C. The competition assay in antagonist mode was performed as follows: after one wash in 200 µl of HBS, cells were exposed to 5-HT4R ligands at twice the indicated concentration, at 37 °C in 50 µl of HBS. After 7 min, serotonin (final concentration of 5.10^−7M) was added in 50 µl of HBS in the presence of the phosphodiesterase inhibitor RO-20-1724 (final concentration of 0.1 mM). After 10 min, cells were then lysed by addition of the same volume of Triton-X100 (0.1%) during 30 min at 37 °C. Quantification of cAMP production was performed by HTRF by using the cAMP Dynamic kit (Cisbio Bioassays) according to the manufacturer’s instructions

[4] = molecular target: T3, HA-tagged human 5-HT4 receptor; assay: cAMP production, competition assay in antagonist mode vs serotonin, transfected COS-7 cells; type: cell-based; details: for 5-HT4 pharmacological profile (antagonism assay): cAMP production
Source text: as §1, §2

5-HT4dR = details: cited from earlier work
[5] = design: method as in PMID 8064800; details: mouse; cited from earlier work
AChE = details: read-out: AChE IC50; cited from earlier work
[6] = design: method as in PMID 8064800; details: cited from earlier work
BuChE = test system: BuChE; design: method as in PMID 8064800; details: cited from earlier work
[7] = 10^−6 M compound, read-out: h5-HT4R % inhibition at 10^−6 M (converted)
[8] = 10^−8 M compound, read-out: h5-HT4R % inhibition at 10^−8 M (converted)
[9] = agonist mode, Moy. (mean of HP5-HP7), unit not given
[10] = agonist mode, individual experiments HP5, HP6, HP7
[11] = agonist mode, individual experiments HP5, HP6, HP7, unit not given
[12] = IC50 (5-HT4R antagonist, cAMP production), COS-7 cells, serotonin 5.10^−7 M, mean of three experiments
[13] = IC50, antagonist mode, individual experiments HP8, HP10, HP11, unit inferred
[14] = Log(IC50), antagonist mode, Moy., printed as Log(IC50), negative
[15] = antagonist mode, individual experiments HP8, HP10, HP11

| SMILES | Ki [1] [nM] | inhibition [1, 7] [%] | inhibition [1, 8] [%] | inhibition at 1 µM [2] [%] | IC50 [2] [nM] | also measured |
| --- | --- | --- | --- | --- | --- | --- |
| c1ccc2c(OCC3CCN(CC4CCCCC4)CC3)noc2c1 [Compound 11, 3-[[1-(cyclohexylmethyl)-4-piperidyl]methoxy]-1,2-benzoxazole] | 9.6 ± 1.6 | 100 | 67 | 24 |  |  |
| c1ccc(CN2CCC(COc3noc4ccccc34)CC2)cc1 [Compound 12] | 42.4 ± 12.2 | 99 | 29 |  |  |  |
| CC(C)CN1CCC(COc2noc3ccccc23)CC1 [Compound 13] | 20.8 ± 12.5 | 100 | 59 | 8 |  |  |
| COc1cccc2onc(OCC3CCN(CC4CCCCC4)CC3)c12 [Compound 14] | 2.7 ± 0.4 | 100 | 99 | 82 | 441 ± 63 |  |
| COc1cccc2onc(OCC3CCN(Cc4ccccc4)CC3)c12 [Compound 15] | 3 ± 0.4 | 100 | 94 | 82 | 939 ± 40 |  |
| COc1cccc2onc(OCC3CCN(CC(C)C)CC3)c12 [Compound 16] | 4.1 ± 0.4 | 100 | 100 | 23 |  | Top AMPc ([3]; agonist mode, Moy.): 4%; EC50 [3, 9]: ns; Log(EC50) ([3]; agonist mode, Moy., negative): ns; Top AMPc [3, 10]: 5.63% and 0.00% and 6.91%; Log(EC50) [3, 10]: ns; EC50 [3, 11]: ns; 5-HT4 pharmacological profile (agonism assay) [3]: not agonist; IC50 [4, 12]: 5.6 ± 2.2 nM; IC50 [4, 13]: 5.07 nM and 2.01 nM and 9.78 nM; IC50 [4, 14]: 5.01 nM; Bott. AMPc ([4]; antagonist mode, Moy.): 31%; Bott. AMPc [4, 15]: 39.69% and 29.62% and 24.98%; 5-HT4 pharmacological profile (antagonism assay) ([4]; COS-7 cells): highly potent antagonist; inhibition of the enzyme (AChE), in words [2]: did not show any inhibition |
| c1ccc2c(CCC3CCN(CC4CCCCC4)CC3)noc2c1 [Compound 21] | 139 ± 9 | 89 | 4 | 84 | 240 ± 59 |  |
| c1ccc(CN2CCC(CCc3noc4ccccc34)CC2)cc1 [Compound 22] | 263 ± 11 | 78 | 8 |  |  |  |
| CC(C)CN1CCC(CCc2noc3ccccc23)CC1 [Compound 23] |  | 87 | 8 | 11 |  |  |
| COc1cccc2onc(CCC3CCN(CC4CCCCC4)CC3)c12 [Compound 32a, 3-[2-[1-(cyclohexylmethyl)-4-piperidyl]ethyl]-4-methoxy-1,2-benzoxazole] | 59 ± 8.5 | 100 | 13 | 94 | 63.5 ± 19.2 | EC50 ([3]; EC50, agonist mode, Moy. (mean of HP5-HP7), unit inferred): 11300 nM; EC50 ([3]; EC50, agonist mode, individual experiments HP5, HP6, HP7, unit inferred): 13600 nM and 20300 nM; Top AMPc ([3]; agonist mode, Moy.): 22%; Top AMPc [3, 10]: 29.36% and 12.83% and 24.95%; 5-HT4 pharmacological profile (agonism assay) [3]: not agonist; IC50 [4, 12]: 97.2 ± 17.2 nM; IC50 [4, 13]: 129 nM and 69.5 nM and 93.6 nM; IC50 [4, 14]: 100 nM; Bott. AMPc ([4]; antagonist mode, Moy.): 33%; Bott. AMPc [4, 15]: 38.80% and 27.69% and 32.50%; 5-HT4 pharmacological profile (antagonism assay) ([4]; COS-7 cells): antagonists |
| CCOc1cccc2onc(CCC3CCN(CC4CCCCC4)CC3)c12 [Compound 32b] | 80.5 ± 9.9 | 100 | 16 | 87 | 200 ± 32 |  |
| CC(C)COc1cccc2onc(CCC3CCN(CC4CCCCC4)CC3)c12 [Compound 32c] | 219 ± 65 | 100 | 4 | 42 |  | inhibition of the enzyme (AChE), in words [2]: without AChE inhibition |
| c1cc(OC2CCCC2)c2c(CCC3CCN(CC4CCCCC4)CC3)noc2c1 [Compound 32d] | 616 ± 67 | 100 | 0 | 52 | 1000 ± 84 |  |
| c1ccc(COc2cccc3onc(CCC4CCN(CC5CCCCC5)CC4)c23)cc1 [Compound 32e] | 2920 ± 781 | 96 | 0 | 10 |  |  |
| Oc1cccc2onc(CCC3CCN(CC4CCCCC4)CC3)c12 [Compound 33] | 37 ± 10.5 | 100 | 29 | 87 | 97.3 ± 1.5 | Top AMPc ([3]; agonist mode, Moy.): -3%; EC50 [3, 9]: ns; Log(EC50) ([3]; agonist mode, Moy., negative): ns; Top AMPc [3, 10]: -15.21% and 4.96% and 0.00%; Log(EC50) [3, 10]: ns; EC50 [3, 11]: ns; 5-HT4 pharmacological profile (agonism assay) [3]: not agonist; IC50 [4, 12]: 883 ± 598 nM; Bott. AMPc ([4]; antagonist mode, Moy.): 44%; Bott. AMPc [4, 15]: 50.44% and 46.43% and 34.27%; 5-HT4 pharmacological profile (antagonism assay) ([4]; COS-7 cells): antagonists |
| OC1(CN2CCC(COc3noc4cccc(O[C@@H]5CCOC5)c34)CC2)CCOCC1 [[A]] |  |  |  |  |  | 5-HT4dR Emax (5-HT4dR): 24%; EC50 (5-HT4dR): 0.2 nM |
| CC(=O)Nc1ccc2c(CCC3CCN(Cc4ccccc4)CC3)noc2c1 [[B]] |  |  |  |  |  | effect on amnesia, passive avoidance model [5]: reversion of amnesia; IC50 (AChE): 2.8 nM; elevation of ACh in mouse [6]: dose-dependent elevation of ACh; IC50 (BuChE): 9000 nM; ratio BuAChE/AChE (BuChE; selectivity ratio): 3200 |
